Source: patent US9295717B2, “Vaccine composition comprising 5′-cap modified RNA” (BIONTECH AG, priority 2009, dated 2016)
“And” between values parts separate entries of the source, which are not always exact repeats. Equal values may be shown once. “Also recorded” adds a separate entry of the source.

Experiments:
CD8^+-T-cells = assay: De novo T-cell priming after intranodal RNA immunization (tetramer staining); type: in vivo; details: mice; intranodal immunization day 0 and day 3; day 8
Procedure: FIG. 6. Effect of the 5′-cap structure on de novo priming of T-cells after intranodal immunization with RNA. Mice (n=5) have been immunized by intranodal injection twice […] (day 0 and day 3) with the same amount of RNA encoding a specific peptide antigen which either carries ARCA or beta-S-ARCA(D1) at the 5′-end. The frequency of tetramer positive CD8^+-cells was determined on day 8 using tetramer analysis. (A) Representative dot plots of cells from the peripheral blood and the spleen of mice which have been immunized with ARCA or beta-S-ARCA(D1) RNA (as indicated). (B) Average number of tetramer positive CD8^+-cells±standard error of the mean (in %) as measured on day 8. The significance was determined using statistical analyses (*: P<0.075).
Mice were immunized by intranodal injection of naked RNA twice […] (at day 0 and at day 3) which encodes a specific antigen with the above modifications. On day 8 the frequency of antigen-specific T-cells in peripheral blood and in the spleen was determined using tetramer staining. As shown in FIG. 6 about 5% of the CD8^+-T-cells in peripheral blood and about 6% of the CD8^+-T-cells in the spleen were tetramer positive after duplicate immunization with ARCA RNA. Using beta-S-ARCA(D1) RNA more than 12% and 13% tetramer positive CD8^+-T-cells in peripheral blood and in the spleen, respectively, were measured.

immature dendritic cells [1] = assay: Luciferase activity with increasing RNA amounts (40 vs 20 pmol) in immature dendritic cells; type: cell-based; details: iDCs
Procedure: (§1) FIG. 3. Competition for translation between ARCA- and beta-S-ARCA(D1)-capped RNAs. Immature dendritic cells (iDCs) were electroporated with (A) increasing amounts of luciferase-encoding RNAs or (B) the indicated amounts of luciferase- and d2eGFP-encoding mRNAs, which were co-transcriptionally capped either with ARCA or beta-S-ARCA(D1) as indicated. The luciferase activity was measured after 2, 4, 8, 24, 48, and 72 hours. Shown is (A) the ratio between the luciferase activities obtained after electroporation with 40 and 20 pmol luciferase-encoding RNAs (±SD of two independent experiments), and (B) the relative luciferase activity compared to cells electroporated with only luciferase-encoding RNA without RNA (set to 1 for both ARCA- and beta-S-ARCA(D1)-capped RNA).
The results described so far indicate that the translational efficiency of an mRNA is influenced in dendritic cells by the type of the cap structure at its 5′ end. This is most likely due to differences in the efficiency by which the translational machinery is recruited to the different 5′ cap-structures. To corroborate this, we next analyzed (i) the effect of the RNA dose that is used for electroporation into immature dendritic cells, and (ii) the impact of a second RNA co-electroporated into immature dendritic cells on the protein expression. By increasing the amount of the electroporated mRNA, it is expected that at some point one or more translation factor(s) will become rate limiting in the cell, which will then restrict the amount of protein that can be synthesized from the exogenous RNA. Similarly, a second RNA will compete for the translation machinery, again influencing the translation efficiency.
Increasing amounts (20 pmol and 40 pmol) of luciferase-encoding RNAs co-transcriptionally capped with either ARCA or beta-S-ARCA(D1) were electroporated into immature dendritic cells, and the luciferase activity was measured after 2, 4, 8, 24, 48, and 72 hours. […] At this time-point, the level of luciferase protein was only about 1.6-fold as high as when half the amount of RNA was used. This ratio decreased even further 48 and 72 hours after electroporation (1.4- and 1.2-fold, respectively).

[2] = test system: immature dendritic cells (iDCs); assay: Luciferase expression after electroporation of 5′-capped luciferase RNA into immature dendritic cells; type: cell-based, human; details: for transl. efficiency: maximal slope of curve; for transl. efficiency / relative total protein expression: m7GpppG RNA set to 1, mean ± SD; for relative total protein expression: luciferase, 72 h time course
[3] = test system: mature dendritic cells (mDCs); assay: Luciferase expression after electroporation of 5′-capped luciferase RNA into mature dendritic cells; type: cell-based, human; details: for transl. efficiency / protein expression (in words): luciferase RNA; for transl. efficiency: maximal slope of curve; for transl. efficiency / relative total protein expression: m7GpppG RNA set to 1, mean ± SD; for relative total protein expression: luciferase, 72 h time course; for time of max.: time point of maximal luciferase expression, mean ± SD
immature dendritic cells [4] = assay: Competition for translation: co-electroporation of d2eGFP RNA with luciferase RNA in immature dendritic cells; type: cell-based; details: iDCs; same amount of d2eGFP RNA; after 24, 48, and 72 hours vs luciferase RNA only
Procedure: as §1
The results described so far indicate that the translational efficiency of an mRNA is influenced in dendritic cells by the type of the cap structure at its 5′ end. This is most likely due to differences in the efficiency by which the translational machinery is recruited to the different 5′ cap-structures. To corroborate this, we next analyzed (i) the effect of the RNA dose that is used for electroporation into immature dendritic cells, and (ii) the impact of a second RNA co-electroporated into immature dendritic cells on the protein expression. […]

HC11 cells = details: background, earlier work; cited from earlier work
Dcp2 = Dcp2 (Homo sapiens, UniProt Q8IU60); details: background, earlier work; cited from earlier work
mature dendritic cells = assay: d2eGFP expression (flow cytometry) after introduction of capped RNA into mature dendritic cells; type: cell-based, human; details: mDCs
[5] = test system: immature dendritic cells (iDCs); assay: RNA stability (half-life) by real time RT-PCR of d2eGFP RNA in immature dendritic cells; type: cell-based, human
[6] = test system: inguinal lymph nodes of mice; assay: In vivo luciferase imaging after intranodal injection of luciferase RNA
Procedure: FIG. 5. Effect of the 5′-cap structure on protein expression in vivo. Mice (n=9) have been injected intranodally with the same amount of luciferase encoding RNA with ARCA or beta-S-ARCA(D1) at the 5′-end (as indicated). The luciferase activity (given in RLU) has been measured after 2, 4, 8, 24, 48, and 72 hours. (A) Images of whole animals at the indicated time points of a representative mouse, which has been injected with ARCA or beta-S-ARCA(D1) RNA are shown. (B) Mean±standard error of the mean as measured in the time course. The significance has been determined using statistical analyses (*: P<0.005 and **: P<0.02).
RNA which is administered in this way is primarily taken up by immature dendritic cells. Thus, we have investigated whether stronger protein expression is also observed in lymph nodes for beta-S-ARCA(D1) RNA compared to RNAs with other cap structures (analyzed exemplarily for ARCA which we have applied in the earlier studies). […] After uptake of the RNA by cells of the lymph nodes and translation of the encoded luciferase, protein expression was quantified by measuring luciferase activity using in vivo imaging. […] 25 min after luciferin injection, photons emitted were quantified for an integration time of 1 min. […] To quantify the bioluminescence, regions of interest (ROI) were drawn and total flux (photons/sec, p/s) in ROI was measured. […]

immature dendritic cells [7] = assay: d2eGFP expression (flow cytometry) after introduction of capped RNA into immature dendritic cells; type: cell-based, human; details: iDCs
[8] = time point of maximal luciferase expression (functional RNA stability), mean ± SD

Substance | translation efficiency increase in comparison to RNA with m^7GpppG ([2]; luciferase RNA) | transl. efficiency ([2]; luciferase RNA) | relative total protein expression [2] | time of max. [2, 8] | transl. efficiency [3] | relative total protein expression [3] | time of max. [3] [h] | total protein expression (in words) ([2]; luciferase RNA) | protein expression (in words) [3] | also measured
m2^(7,3′-O)GpppG [ARCA] | about 2.5 fold | 2.52 ± 0.19 | 4.777 ± 0.042 | 12 h and 12.6 ± 0.1 h | 2.16 ± 0.00 | 2.526 ± 0.015 | 17.5 ± 0.3 | – | – | tetramer positive CD8^+-T-cells in peripheral blood (CD8^+-T-cells): about 5%; tetramer positive CD8^+-T-cells in the spleen (CD8^+-T-cells): about 6%; level of luciferase protein with 40 pmol relative to 20 pmol RNA (immature dendritic cells [1]; 24 hours after electroporation): about 1.6 fold; level of luciferase protein with 40 pmol relative to 20 pmol RNA (immature dendritic cells [1]; 48 hours after electroporation): 1.4 fold; level of luciferase protein with 40 pmol relative to 20 pmol RNA (immature dendritic cells [1]; 72 hours after electroporation): 1.2 fold; effect of co-electroporated d2eGFP RNA on expression of luciferase RNA (immature dendritic cells [4]): decreased the expression
m2^(7,2′-O)GppspG(D2) [beta-S-ARCA(D2)] | about 3.5 fold | 3.53 ± 0.17 | 6.570 ± 0.075 | 12.8 ± 0.0 h | 3.30 ± 0.03 | 4.042 ± 0.053 | 19.4 ± 0.1 | second best total expression | highest protein expression | translation / total expression in HC11 cells (in words) (HC11 cells): more efficiently translated in HC11 cells; also recorded: strongest total expression; Dcp2 cleavage compared to RNA with unmodified ARCA 5′-cap (Dcp2): 6%; total protein expression (in words) (mature dendritic cells): highest total protein expression
m^7Gppppm^7G [m7Gppppm7G] | – | 0.20 ± 0.10 | 0.404 ± 0.004 | 4.9 ± 0.1 h | 0.56 ± 0.04 | 0.176 ± 0.001 | 6.0 ± 0.3 | even lower than that of RNA which has been transcribed in presence of m^7GpppG | poorly translated | RNA stability / degradation (in words) [5]: most unstable RNA
ApppG | – | 0.01 ± 0.00 | 0.022 ± 0.001 | – | 0.01 ± 0.00 | 0.008 ± 0.000 | – | do not result in any significant expression | do not result in protein expression | –
m^7GpppG [m7GpppG] | – | 1.00 ± 0.04 | 1.000 ± 0.007 | 8.1 ± 1.1 h | 1.00 ± 0.05 | 1.000 ± 0.003 | 16.0 ± 0.3 | – | – | time of max. (hours) ([2]; time point of maximal luciferase expression (functional RNA stability), mean ± SD, listed as m^7GpppG): around 8 hours
GpppG | – | 0.18 ± 0.01 | 0.221 ± 0.001 | 11.5 ± 0.0 h | 0.31 ± 0.02 | 0.593 ± 0.005 | 27.5 ± 0.5 | do not result in any significant expression | do not result in protein expression | –
m2^(7,2′-O)GppspG(D1) [beta-S-ARCA(D1)] | about 3.4 fold | 3.36 ± 0.09 | 13.094 ± 0.307 | – | 3.05 ± 0.14 | 3.884 ± 0.032 | 20.1 ± 0.1 | highest total protein expression | – | protein expression compared to RNA with ARCA (in words) ([6]; 2, 4, 8, 24, 48, and 72 hours after intranodal application): higher at each time point; expression throughout the entire time course (integral of the curve), increase vs ARCA RNA ([6]; intranodal injection, luciferase, 2-72 hours): about 8 fold; Dcp2 cleavage compared to RNA with unmodified ARCA 5′-cap (Dcp2): 71%; tetramer positive CD8^+-T-cells in peripheral blood (CD8^+-T-cells): more than 12%; tetramer positive CD8^+-T-cells in the spleen (CD8^+-T-cells): > 13%; signal with 40 pmol relative to 20 pmol RNA (immature dendritic cells [1]; each time-point (2-72 hours)): about twice as high; expression increase (factor) compared to RNA with ARCA or post-transcriptionally modified RNA ([2]; luciferase RNA): around 3; total protein expression increase compared to RNA synthesized in presence of m^7GpppG ([2]; luciferase RNA): more than 13 fold; total protein expression increase compared to beta-S-ARCA(D2) RNA ([2]; luciferase RNA): about 2 fold; RNA stability / degradation (in words) [5]: most stable RNA; total protein expression (in words) (immature dendritic cells [7]): highest total protein expression
